Reference: patent US20240327375A1, “SUBSTITUTED HETEROBICYCLIC DERIVATIVES AS NEGATIVE ALLOSTERIC MODULATORS OF MGLU7 RECEPTOR” (priority 2021, published 2024)
Structures can show the parent of a compound that is named as a salt.

Biological target: T1, human mGlu7 (Homo sapiens, UniProt Q14831)
T1 construct: expressed in transfected cells
Experiment: mGlu7 assay on HEK-expressing human mGlu7: fluorescent cell-based Ca2+ mobilization (FLIPR384), inhibition of EC80 L-AP4 response
Details: HEK-293 cells expressing hmGlu7, EC80 L-AP4 stimulation; mean of at least three independent experiments in duplicate; read-out: Ca^2+ Flux (mean IC50)
From the text: mGlu7 Assay on HEK-Expressing Human mGlu7
The cDNA encoding the human metabotropic glutamate 7 receptor (hmGlu7), (accession number NM_181874.2, NCBI Nucleotide database browser), was subcloned into an expression vector containing also the hygromycin resistance gene. In parallel, the cDNA encoding a G protein allowing redirection of the activation signal to intracellular calcium flux was subcloned into a different expression vector containing also the Puromycin resistance gene. Transfection of both these vectors into HEK293 cells with PolyFect reagent (Qiagen) according to supplier's protocol, and hygromycin and puromycin treatment allowed selection of antibiotic resistant cells which had integrated stably one or more copies of the plasmids. Positive cellular clones expressing hmGlu7 were identified in a functional assay measuring changes in calcium fluxes in response to glutamate and L-AP4 or known mGlu7 orthosteric antagonists.
HEK-293 cells expressing hmGlu7 were maintained in media containing DMEM, Fetal Bovine Serum (10%), Glutamax™ (2 mM), penicillin (100 units/mL), streptomycin (100 μg/mL), geneticin (100 μg/mL) and hygromycin-B (40 μg/mL) and puromycin (1 μg/mL) at 37° C. with 5% CO2 in a humidified atmosphere.
Fluorescent Cell Based- Ca^+ Mobilization Assay Human mGlu7 HEK-293 cells were plated out 24 hours prior to a fluorescent cell-based calcium mobilization assay using FLIPR^384 assay (Molecular Device, Sunnyvale, CA, USA) in black-walled, clear-bottomed, poly-L-ornithine-coated 384-well plates at a density of 25,000 cells/well in a glutamine/glutamate free DMEM medium containing fetal bovine serum (10%), penicillin (100 units/mL), streptomycin (100 μg/mL) and doxycyline (1 μg/ml) at 37° C. with 5% CO2 in a humidified atmosphere.
On the day of the assay, the medium was aspirated and the cells were loaded with a 3 μM solution of Fluo4-AM (LuBioScience, Lucerne, Switzerland) in 0.03% pluronic acid. After 1 hour at 37° C./5% CO2, the non incorporated dye was removed by washing cell plate with the assay buffer. All assays were performed in a pH 7.4 buffered-solution containing 20 mM HEPES, 143 mM NaCl, 6 mM KCl, 1 mM MgSO4, 1 mM CaCl2, 0.125 mM sulfinpyrazone and 0.1% glucose.
After 10 s of basal fluorescence recording, various concentrations of the compounds of the invention were added to the cells. Changes in fluorescence levels were first monitored for 180 s in order to detect any agonist activity of the compounds. Then the cells were stimulated by an EC80 L-AP4 concentration for an additional 110 s in order to measure inhibiting activities of the compounds of the invention. EC80 L-AP4 concentration is the concentration giving 80% of the maximal glutamate response.
The concentration-response curves of L-AP4 or representative compounds of the present invention were generated using the Prism GraphPad software (Graph Pad Inc, San Diego, USA). The curves were fitted to a four-parameter logistic equation: […]
allowing determination of IC50 values.
The Table 3 below represents the mean IC50 obtained from at least three independent experiments of selected molecules performed in duplicate.

T1 sequence (Q14831 35-922 isoform Q14831-2 limits assumed): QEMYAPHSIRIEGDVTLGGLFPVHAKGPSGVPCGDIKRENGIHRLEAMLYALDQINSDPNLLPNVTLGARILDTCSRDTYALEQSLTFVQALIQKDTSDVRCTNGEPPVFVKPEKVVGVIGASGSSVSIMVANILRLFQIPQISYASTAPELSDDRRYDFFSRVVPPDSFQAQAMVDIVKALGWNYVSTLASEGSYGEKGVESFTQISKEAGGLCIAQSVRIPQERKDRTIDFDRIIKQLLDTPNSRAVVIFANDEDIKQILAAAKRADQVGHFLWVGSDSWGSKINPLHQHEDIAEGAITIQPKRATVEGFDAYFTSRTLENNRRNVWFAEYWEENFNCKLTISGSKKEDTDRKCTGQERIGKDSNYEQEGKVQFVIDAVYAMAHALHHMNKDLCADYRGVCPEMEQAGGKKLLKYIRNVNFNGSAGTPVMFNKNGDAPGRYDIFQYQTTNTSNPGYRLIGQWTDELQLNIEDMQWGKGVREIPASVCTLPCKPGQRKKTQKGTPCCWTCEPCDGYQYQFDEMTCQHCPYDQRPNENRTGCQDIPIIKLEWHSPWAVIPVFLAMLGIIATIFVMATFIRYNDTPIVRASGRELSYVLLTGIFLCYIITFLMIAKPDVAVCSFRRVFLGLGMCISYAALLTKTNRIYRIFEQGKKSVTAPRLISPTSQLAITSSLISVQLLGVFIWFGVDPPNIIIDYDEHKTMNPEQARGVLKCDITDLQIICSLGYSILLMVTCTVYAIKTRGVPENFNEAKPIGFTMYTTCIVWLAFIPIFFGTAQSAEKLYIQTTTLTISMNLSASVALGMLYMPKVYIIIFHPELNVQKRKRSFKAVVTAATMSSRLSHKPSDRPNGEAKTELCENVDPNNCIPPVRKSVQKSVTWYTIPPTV

Structure (SMILES) | IC50
O=c1c2ccc(-c3cccc(C4CC4)c3)cc2cnn1-c1ccccn1 [1-22, 6-(3-Cyclopropylphenyl)-2-(pyridin-2-yl)phthalazin-1(2H)-one] | 100 to 1000 nM
Cc1ccc(-c2ccc3c(=O)n(-c4ncc(N5CCOCC5)cn4)ncc3c2)c(C)c1 [1-81] | 100 to 1000 nM
Cc1ccc(-c2ccc3c(=O)n(-c4ncc(N5CCC(O)C5)cn4)ncc3c2)c(C)c1 (centres unmarked) [1-82] | < 100 nM
O=c1c2ccc(-c3cccc(N4CCC4)c3)cc2cnn1-c1ncc(N2CCC(O)C2)cn1 (centres unmarked) [1-83] | 100 to 1000 nM
COc1cccc(-c2ccc3c(=O)n(-c4ncc(N5CC6(COC6)C5)cn4)ncc3c2)c1C [1-84, 2-(5-(2-Oxa-6-azaspiro[3.3]heptan-6-yl)pyrimidin-2-yl)-6-(3-methoxy-2-methylphenyl)phthalazin-1(2H)-one] | 100 to 1000 nM
CCOc1cnc(-n2ncc3cc(-c4cccc(OC)c4C)ccc3c2=O)nc1 [1-85] | < 100 nM
COc1cccc(-c2ccc3c(=O)n(-c4ncc(NC5CCC(O)C5)cn4)ncc3c2)c1C (centres unmarked) [1-87] | < 100 nM
COc1cccc(-c2ccc3c(=O)n(-c4ncc(NCC(C)(C)O)cn4)ncc3c2)c1C [1-88] | < 100 nM
COc1cccc(-c2ccc3c(=O)n(-c4ncc(Cl)cn4)ncc3c2)c1C [1-90] | < 100 nM
COc1cccc(-c2ccc3c(=O)n(-c4ccc(S(C)(=N)=O)cn4)ncc3c2)c1C (centres unmarked) [1-91] | < 100 nM
COc1cccc(-c2ccc3c(=O)n(-c4ccc(C(=O)NCC(C)(C)O)cn4)ncc3c2)c1C [1-92] | < 100 nM
COc1cccc(-c2ccc3c(=O)n(-c4ccc(C(=O)N5CCC(O)C5)cn4)ncc3c2)c1C (centres unmarked) [1-93] | < 100 nM
COc1cccc(-c2ccc3c(=O)n(-c4ccc(C(=O)NC5CCC(O)C5)cn4)ncc3c2)c1C (centres unmarked) [1-94] | < 100 nM
COc1cccc(-c2ccc3c(=O)n(-c4ncc(NCCN5CCCC5)cn4)ncc3c2)c1C [1-95] | 100 to 1000 nM
COc1cccc(-c2ccc3c(=O)n(-c4ncc(NCC(C)(C)N(C)C)cn4)ncc3c2)c1C [1-96] | 100 to 1000 nM
COc1cccc(-c2ccc3c(=O)n(-c4ncc(NCCn5ccnc5)cn4)ncc3c2)c1C [1-97] | < 100 nM

Second part, the compound after the results:

IC50 | Structure (SMILES)
100 to 1000 nM | COc1cccc(-c2ccc3c(=O)n(-c4ccc(NC(=O)[C@@H](N)C(C)C)cn4)ncc3c2)c1C [1-98, (S)-2-Amino-N-(6-(6-(3-methoxy-2-methylphenyl)-1-oxophthalazin-2(1H)-yl)pyridin-3-yl)-3-methylbutanamide hydrochloride]
100 to 1000 nM | COc1cccc(-c2ccc3c(=O)n(-c4ccc(NC(=O)[C@@H]5CCCN5)cn4)ncc3c2)c1C [1-99]
< 100 nM | COc1cccc(-c2ccc3c(=O)n(-c4ncc(NC(C)(C)CO)cn4)ncc3c2)c1C [1-100]
100 to 1000 nM | COc1cccc(-c2ccc3c(=O)n(-c4ncc(N5CCC(N(C)C)C5)cn4)ncc3c2)c1C (centres unmarked) [1-101]
< 100 nM | COc1cccc(-c2ccc3c(=O)n(-c4ccc(NC(=O)[C@@H](N)CO)cn4)ncc3c2)c1C [1-102]
100 to 1000 nM | COc1cccc(-c2ccc3c(=O)n(-c4ncc(N5CCCC(N(C)C)C5)cn4)ncc3c2)c1C (centres unmarked) [1-103]
100 to 1000 nM | COc1cccc(-c2ccc3c(=O)n(-c4ncc(NC(C)(C)CN(C)C)cn4)ncc3c2)c1C [1-104]
100 to 1000 nM | CNCCNc1cnc(-n2ncc3cc(-c4cccc(OC)c4C)ccc3c2=O)nc1 [1-105]
< 100 nM | COc1cccc(-c2ccc3c(=O)n(-c4ncc(NCCn5cncn5)cn4)ncc3c2)c1C [1-106]
< 100 nM | COc1cccc(-c2ccc3c(=O)n(-c4ncc(NC5CCN(C)C5)cn4)ncc3c2)c1C (centres unmarked) [1-107]
< 100 nM | CN1CCCc2c(-c3ccc4c(=O)n(-c5ncccn5)ncc4c3)cccc21 [1-108]
< 100 nM | COCC(C)(C)Nc1cnc(-n2ncc3cc(-c4cccc(OC)c4C)ccc3c2=O)nc1 [1-109]
100 to 1000 nM | COc1cccc(-c2ccc3c(=O)n(-c4ncc(NCC(C)(C)OC)cn4)ncc3c2)c1C [1-110, 6-(3-Methoxy-2-methylphenyl)-2-(5-((2-methoxy-2-methylpropyl)amino)pyrimidin-2-yl)phthalazin-1(2H)-one]
< 100 nM | COc1cccc(-c2ccc3c(=O)n(-c4ncccn4)ncc3c2)c1F [1-111]
1000 to 10000 nM | COc1nccc(-c2ccc3c(=O)n(-c4ncccn4)ncc3c2)c1F [1-112]

Test system: not given
Experiment: not given
Details: not given

Structure (SMILES) | melting point
O=c1c2ccc(-c3cccc(C4CC4)c3)cc2cnn1-c1ccccn1 [1-22, 6-(3-Cyclopropylphenyl)-2-(pyridin-2-yl)phthalazin-1(2H)-one] | 181 to 184 °C
